Results taken from PubChem BioAssay (NCI).
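Exposure lasted 48 hours, with cells grown in 96-well plates and compounds tested at five concentrations. At the TGI there is no net growth.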

What was measured:
Experiment in all cases: NCI anticancer screen, dose series, 48 h
[1] = tested on: KM20L2 colon
[2] = tested on: DMS 114 small cell lung
[3] = tested on: SNB-78 CNS
[4] = tested on: M19-MEL melanoma
[5] = tested on: A498 renal
[6] = tested on: DLD-1 colon
[7] = tested on: LXFL 529 NSCLC
[8] = tested on: HOP-18 NSCLC
[9] = tested on: XF 498 CNS
[10] = tested on: DMS 273 small cell lung
[11] = tested on: RXF-631 renal

Row | Structure (SMILES) | TGI [1] [µM] | TGI [2] [µM] | TGI [3] [µM] | TGI [4] [µM] | TGI [5] [µM] | TGI [6] [µM] | TGI [7] [µM] | TGI [8] [µM] | TGI [9] [µM] | TGI [10] [µM] | TGI [11] [µM]
1 | O=C1CSC(Cc2nc3ccccc3[nH]2)=N1 | 33.3 | > 59.2 | > 100 | > 59 | 10.4 | 49 | > 53.8 | 65.6 | 39.9 | 35.4 | 
2 | c1cc(-c2ncc(-c3ccc4c(c3)CCCO4)o2)ccn1 |  |  |  |  | 59.6 |  |  |  |  |  | 
3 | CC(=O)c1sc2c(c1OC(=O)c1cccs1)c(=O)n(-c1ccccc1)c(=S)n2-c1ccccc1 |  |  |  |  | 15.9 |  |  |  |  |  | 
4 | COC1=C(Br)[C@H](O)[C@@]2(C=C1Br)CC(C(=O)NCCCCCN=C(N)N)=NO2 |  |  |  |  | > 10 |  |  |  |  |  | 
5 | O=C1C(Cl)C(c2ccccc2)N1n1cnc2ccccc2c1=O (stereo unspecified) | > 100 | > 100 | > 100 | > 100 |  | > 100 | > 100 | > 100 | > 100 | > 100 | 
6 | O=C(Nc1ccc([N+](=O)[O-])cc1)C1C(=O)C(=O)N(c2ccc([N+](=O)[O-])cc2)C1=O (stereo unspecified) | > 100 | 35.8 | > 100 |  | > 100 | > 100 | > 100 | > 100 |  | > 100 | > 100
7 | C[C@]12CCC(=O)C=C1CC[C@@H]1C2CC[C@]2(C)c3nn(-c4ccc(F)cc4)nc3CC12 (stereo partly specified) |  |  |  |  | > 100 |  |  |  |  |  | 
8 | O=c1[nH]cc(COCC(F)(F)C(F)(F)C(F)(F)C(F)F)c(=O)[nH]1 | > 100 | > 100 |  | > 100 |  | > 100 | > 100 | > 100 |  |  | 
9 | N#CC(C(=O)/C(=N/Nc1nc(=S)[nH]n1N)C(C#N)c1ccccc1)c1ccccc1 (stereo unspecified) | > 100 | > 100 | > 100 | > 100 | > 100 | > 100 | > 100 | > 100 | > 100 | > 100 | > 100
10 | CN(C)C1=Nc2ccccc2C(=S)N2CSCC12 (stereo unspecified) |  |  |  |  | > 100 |  |  |  |  |  | 
11 | CCOC(=O)C(N=Nc1ccc(S(N)(=O)=O)cc1)C(C)=O (stereo unspecified) | > 100 | > 100 | > 100 | > 100 | > 100 | > 100 | > 100 | > 100 | > 100 | > 100 | > 100
12 | N#CC(NNC(=O)Cc1ccccc1)c1ccccc1O (stereo unspecified) |  |  | > 100 | 27 | > 80.3 | > 100 | > 100 | 74.9 |  | > 100 | 
13 | CCC1c2[nH]c3ccccc3c2C[C@H]2C(=O)NC(COC(C)(C)C)C(=O)N12 (stereo partly specified) |  |  |  |  | > 100 |  |  |  |  |  | 
14 | N#Cc1c(-c2ccccc2)[nH]c2ccccc2c1=O |  |  |  |  | > 100 |  |  |  |  |  | 
15 | Cc1cn(C2CC(N(O)Cc3ccccc3)C(CO)O2)c(=O)[nH]c1=O (stereo unspecified) | > 100 | > 100 | > 100 | > 100 |  |  | > 100 |  | > 100 | > 100 | 
16 | CCOC(=O)C1(C(=O)OCC)CN(CC)CN(c2ccccc2)C1 |  |  |  |  | > 100 |  |  |  |  |  | 

Row | Structure (SMILES) | TGI [1] [µM] | TGI [2] [µM] | TGI [3] [µM] | TGI [4] [µM] | TGI [5] [µM] | TGI [6] [µM] | TGI [7] [µM] | TGI [8] [µM] | TGI [9] [µM] | TGI [10] [µM] | TGI [11] [µM]
17 | Cn1ccc(C(=O)NCCOCCNC(=O)c2ccn(C)c(=O)c2O)c(O)c1=O |  |  |  |  | > 100 |  |  |  |  |  | 
18 | COc1c(C)c2c(c(C)c1Cl)Oc1c(C=O)c(O)c(Cl)c(C)c1C(=O)O2 | 82.9 | 79.1 | 54.7 | > 100 | 58.8 | > 100 | 82.9 |  | 22.7 | 70.5 | 
19 | N#CSc1nc[nH]c1C(N)=O |  |  |  |  | > 100 |  |  |  |  |  | 
20 | Cc1cccc(/C=N/NC(=S)NCCc2ccccn2)n1 |  |  |  |  | 87.5 |  |  |  |  |  | 
21 | CCN(CC)c1ccc2cc(-c3nnc(-c4ccccc4)o3)c(=O)oc2c1 |  |  |  |  | > 100 |  |  |  |  |  | 
22 | C=CCNC1=C2C[C@@H](C)C[C@@H](OC)[C@@H](OC(=O)CCCN)[C@H](C)/C=C(\C)[C@@H](OC(N)=O)[C@H](OC)/C=C\C=C(/C)C(=O)NC(=CC1=O)C2=O |  |  |  |  | 36.3 |  |  |  |  |  | 
23 | CC1=C(C(=O)Nc2c(C)cccc2C)C(c2ccccc2Cl)C(C(=O)Nc2c(C)cccc2C)=C(C)N1 | > 100 | > 100 | > 100 | > 100 | > 100 | > 100 | > 100 |  | > 100 | > 100 | 
24 | CC1=C(Br)C(Br)=C(C)S1=O |  |  |  |  | 96.5 |  |  |  |  |  | 
25 | CC12CCC(C(=O)OC1=O)C2(C)C (stereo unspecified) |  |  |  |  | > 100 |  |  |  |  |  | 
26 | NC(CCC(=O)NC(CSC(=O)N(O)c1ccc(Br)cc1)C(=O)NCC(=O)O)C(=O)O (stereo unspecified) | > 100 | > 100 | > 100 | > 100 | > 100 | > 100 | > 100 | > 100 |  | > 100 | 
27 | COC(=O)C(=C/c1ccc(OC)cc1)/C(C(=O)O)=C(/C)c1ccccc1 | > 100 |  | > 100 | > 100 | > 100 | > 100 | > 100 | > 100 | > 100 | > 100 | 
28 | COc1ccc(CCNC2=CC(=O)c3ncccc3C2=O)cc1OC |  |  |  |  | 3.39 |  |  |  |  |  | 
29 | COn1cc(C=O)c2ccccc21 |  |  |  |  | 3.97 |  |  |  |  |  | 
30 | COc1cc2c(cc1OCc1ccccc1)CNCC2 | > 100 | > 100 | > 100 | > 100 | > 100 | > 100 | > 100 | > 100 | > 100 | > 100 | > 100
31 | CC(C)(C)C(=O)/C=C/c1ccc(Oc2ccccc2)cc1 | 40.2 |  | 75.7 | > 100 | 32.7 | 61.4 | 28.9 | 34.9 | 28.8 |  | 
32 | C/C(=C1/CCCC2(N=NCC2c2ccccc2)C1=O)c1ccccc1 (stereo unspecified) | > 100 | 33.2 | 90.2 | 65 |  | > 100 | 65.1 | > 100 | 49.2 | 33.3 | 
